Measured values: patent US20240180872A1, “METHODS AND COMPOUNDS OF CANNABIDIOL, MELATONIN AND AKBA FOR TREATING PANCREATIC CANCER” (priority 2021, published 2024)

What was measured:
[1] = tested on: pancreatic adenocarcinoma associated genes; assay: TaqMan Array gene expression in PANC-1, normalized for GAPDH; conditions: 24 hs, CBD 3.8, MLT 200, AKBA 7.5 micrograms/ml
Procedure: Total RNA from untreated or CBD, MLT, AKBA alone and in combination treated cell lines was extracted using Rneasy Mini kit (Qiagen, Milan, Italy). One microgram of total RNA from each sample was subjected to reverse transcription in a total volume of 20 μL using the High-Capacity cDNA Archive Kit (Applied Biosystem, Foster City, […], USA) according to the instructions. cDNAs were analyzed by qRT-PCR performed using an IQ5 Multicolor Real time PCR Detection system. Quantitative real-time gene expression was performed with the TaqMan® Array Human Pancreatic Adenocarcinoma 96-well Plate, containing 92 assays to pancreatic adenocarcinoma associated genes and 4 assays to candidate endogenous control genes, was purchased (Thermo Fisher, Grand Island, NY, USA) and used to evaluate the treatments in modulating PDAC-related genes (Table 1). Measurement of different housekeeping genes (GAPDH; HPRT1; GUSB) on the samples was used to normalize mRNA content. The gene expression levels of treated cell lines were expressed as relative fold compared with untreated or vehicle-treated cells.
To elucidate the molecular events induced by CBD, MLT and AKBA alone and in combination, 92 genes involved in PDAC progression and aggressiveness were evaluated by Taqman Array. Both cell lines were treated with CBD, MLT and AKBA alone and in combination, and the molecular pathways of PDAC associated gene were evaluated.
Target mRNA levels were normalized for GAPDH expression.

[2] = tested on: PANC-1 cell line; assay: Cytotoxicity assay (MTT, 72 hours, daily administration) in PANC-1; conditions: Homo sapiens, PANC-1, read-out: % VIABILITY ± S.D.
Procedure: Human pancreatic ductal adenocarcinoma (PANC-1 and MIAPaCa-2) cell lines were purchased by Sigma Aldrich (Milan, Italy) and cultured in DMEM high glucose medium (EuroClone, Milan, Italy) supplemented with 10% of fetal bovine serum (FBS), 2 mM L-glutamine, 100 IU/mL penicillin, 100 mg streptomycin and 1 mM sodium pyruvate. Cell lines were maintained at 37° C. with 5% CO2 and 95% of humidity.
3×10^4 cells/mL were seeded in 96-well plates in a final volume of 100 L/well. After one day of incubation, compounds or vehicles, alone or in combination, were added and six replicates were used for each treatment and all experiments were repeated three times. In all the experiments, the treatment was daily added, after washing with fresh medium. After 72 hours cell viability was investigated by adding 0.8 mg/mL of 3-[4,5-dimethylthiazol-2-yl]-2,5 diphenyl tetrazolium bromide (MTT) (Sigma Aldrich) to the media. After 3 h the supernatant was removed, and the pellet of salt crystals was solubilized with 100 μL/well of DMSO. The absorbance of the sample against a background control was measured at 570 nm using an ELISA reader microliter plate (BioTek Instruments, Winooski, VT, USA).
Cytotoxicity in PDAC cell lines: The effect of CBD, MLT and AKBA in reducing cell viability was evaluated at 72 hours, post daily administration, in PDAC cell lines. Cells were treated with different doses of CBD, MLT and AKBA (up to 1 mg) and percentage of cell viability was evaluated by the MTT assay. […] The compounds were administered daily for 72 hours, as in previous experiments at the desired doses. […] MTT assay was used to analyse the cell cytotoxicity.

Question: For CC(=O)O[C@@H]1CC[C@@]2(C)[C@@H](CC[C@]3(C)[C@@H]2C(=O)C=C2[C@@H]4[C@@H](C)[C@H](C)CC[C@]4(C)CC[C@]23C)[C@@]1(C)C(=O)O [AKBA, (3R,4R,4aR,6aR,6bS,8aR,11R,12S,12aR,14aR,14bS)-3-acetyloxy-4,6a,6b,8a,11,12,14b-heptamethyl-14-oxo-1,2,3,4a,5,6,7,8,9,10,11,12,12a, 14a-tetradecahydropicene-4-carboxylic acid], which “AKT3 mRNA relative expression” value ([1]; VEI 0.00) is on record?
Answer: 0.00

Question: And the “ARHGEF7 mRNA relative expression” value ([1]; VEI 0.00)?
Answer: 0.00

Question: What about the “BCL2 mRNA relative expression” value ([1]; VEI 0.00) of the same molecule?
Answer: 0.00

Question: And the “CCND2 mRNA relative expression” value ([1]; VEI 0.00)?
Answer: 0.00

Question: And the “CDKN2B mRNA relative expression” value ([1]; VEI 0.00)?
Answer: 0.20

Question: And the “CYP2E1 mRNA relative expression” value ([1]; VEI 0.00)?
Answer: 0.00

Question: And the “EGF mRNA relative expression” value ([1]; VEI 0.00)?
Answer: 0.00

Question: And the “IGF1 mRNA relative expression” value ([1]; VEI 0.00)?
Answer: 0.00

Question: And the “IL6 mRNA relative expression” value ([1]; VEI 0.00)?
Answer: 0.00

Question: And the “KDR mRNA relative expression” value ([1]; VEI 0.00)?
Answer: 0.00

Question: What about the “KIT mRNA relative expression” value ([1]; VEI 0.00) of the same molecule?
Answer: 0.00

Question: And the “MAPK3 mRNA relative expression” value ([1]; VEI 0.00)?
Answer: 0.00

Question: What about the “MMP1 mRNA relative expression” value ([1]; VEI 0.00) of the same molecule?
Answer: 0.02

Question: And the “MMP3 mRNA relative expression” value ([1]; VEI 0.00)?
Answer: 0.00

Question: And the “TGFA mRNA relative expression” value ([1]; VEI 0.00)?
Answer: 0.02

Question: What about the “TGFB2 mRNA relative expression” value ([1]; VEI 0.00) of the same molecule?
Answer: 0.12

Question: And the “JAK2 mRNA relative expression” value ([1]; VEI 0.01)?
Answer: 0.04

Question: What about the “JAK3 mRNA relative expression” value ([1]; VEI 0.01) of the same molecule?
Answer: 0.03

Question: And the “MMP7 mRNA relative expression” value ([1]; VEI 0.01)?
Answer: 0.03

Question: And the “MMP9 mRNA relative expression” value ([1]; VEI 0.01)?
Answer: 0.03

Question: And the “PK3CA mRNA relative expression” value ([1]; VEI 0.01)?
Answer: 0.02

Question: What about the “RAC2 mRNA relative expression” value ([1]; VEI 0.01) of the same molecule?
Answer: 0.01

Question: What about the “RB1 mRNA relative expression” value ([1]; VEI 0.01) of the same molecule?
Answer: 0.15

Question: What about the “TGFB3 mRNA relative expression” value ([1]; VEI 0.01) of the same molecule?
Answer: 0.05

Question: What about the “TGFBR1 mRNA relative expression” value ([1]; VEI 0.02) of the same molecule?
Answer: 0.07

Question: And the “BRCA2 mRNA relative expression” value ([1]; VEI 0.03)?
Answer: 0.10

Question: What about the “CDKN2D mRNA relative expression” value ([1]; VEI 0.03) of the same molecule?
Answer: 0.05

Question: And the “MDM2 mRNA relative expression” value ([1]; VEI 0.03)?
Answer: 0.04

Question: What about the “RHOB mRNA relative expression” value ([1]; VEI 0.03) of the same molecule?
Answer: 0.05

Question: And the “CDKN2C mRNA relative expression” value ([1]; VEI 0.04)?
Answer: 0.12

Question: And the “PK3R1 mRNA relative expression” value ([1]; VEI 0.04)?
Answer: 0.03

Question: What about the “PTGS2 mRNA relative expression” value ([1]; VEI 0.04) of the same molecule?
Answer: 0.08

Question: And the “STATSB mRNA relative expression” value ([1]; VEI 0.04)?
Answer: 0.20

Question: And the “MAPK1 mRNA relative expression” value ([1]; VEI 0.05)?
Answer: 0.60

Question: And the “SMAD2 mRNA relative expression” value ([1]; VEI 0.05)?
Answer: 0.04

Question: And the “CCND1 mRNA relative expression” value ([1]; VEI 0.06)?
Answer: 0.10

Question: And the “MAP2K2 mRNA relative expression” value ([1]; VEI 0.06)?
Answer: 0.10

Question: And the “PK3CD mRNA relative expression” value ([1]; VEI 0.06)?
Answer: 0.05

Question: What about the “TGFBR2 mRNA relative expression” value ([1]; VEI 0.06) of the same molecule?
Answer: 0.10

Question: What about the “VEGFA mRNA relative expression” value ([1]; VEI 0.06) of the same molecule?
Answer: 0.45

Question: And the “VEGFB mRNA relative expression” value ([1]; VEI 0.06)?
Answer: 0.18

Question: What about the “CCNA2 mRNA relative expression” value ([1]; VEI 0.07) of the same molecule?
Answer: 0.10

Question: And the “CCNE2 mRNA relative expression” value ([1]; VEI 0.07)?
Answer: 0.06

Question: What about the “EZF3 mRNA relative expression” value ([1]; VEI 0.07) of the same molecule?
Answer: 0.07

Question: What about the “SMAD4 mRNA relative expression” value ([1]; VEI 0.07) of the same molecule?
Answer: 0.09

Question: And the “SOS1 mRNA relative expression” value ([1]; VEI 0.07)?
Answer: 0.10

Question: What about the “TGFB1 mRNA relative expression” value ([1]; VEI 0.07) of the same molecule?
Answer: 0.15

Question: What about the “MAP2K1 mRNA relative expression” value ([1]; VEI 0.08) of the same molecule?
Answer: 0.10

Question: What about the “MMP2 mRNA relative expression” value ([1]; VEI 0.08) of the same molecule?
Answer: 0.20

Question: And the “VEGFC mRNA relative expression” value ([1]; VEI 0.08)?
Answer: 0.12

Question: What about the “CCNE1 mRNA relative expression” value ([1]; VEI 0.09) of the same molecule?
Answer: 0.10

Question: And the “CDK2 mRNA relative expression” value ([1]; VEI 0.09)?
Answer: 0.10

Question: What about the “KRAS mRNA relative expression” value ([1]; VEI 0.09) of the same molecule?
Answer: 0.09

Question: What about the “RAC1 mRNA relative expression” value ([1]; VEI 0.09) of the same molecule?
Answer: 0.10

Question: What about the “REL mRNA relative expression” value ([1]; VEI 0.09) of the same molecule?
Answer: 0.08

Question: What about the “STAT2 mRNA relative expression” value ([1]; VEI 0.09) of the same molecule?
Answer: 0.11

Question: What about the “CDKN1B mRNA relative expression” value ([1]; VEI 0.10) of the same molecule?
Answer: 0.10

Question: And the “CDKN2A mRNA relative expression” value ([1]; VEI 0.10)?
Answer: 0.12

Question: What about the “RELA mRNA relative expression” value ([1]; VEI 0.10) of the same molecule?
Answer: 0.10

Question: What about the “AKT1 mRNA relative expression” value ([1]; VEI 0.11) of the same molecule?
Answer: 0.20

Question: What about the “PK3CB mRNA relative expression” value ([1]; VEI 0.11) of the same molecule?
Answer: 0.16

Question: And the “FIGF mRNA relative expression” value ([1]; VEI 0.14)?
Answer: 0.00

Question: And the “TP53 mRNA relative expression” value ([1]; VEI 0.14)?
Answer: 0.38

Question: And the “EZF4 mRNA relative expression” value ([1]; VEI 0.16)?
Answer: 0.18

Question: What about the “NFKB2 mRNA relative expression” value ([1]; VEI 0.16) of the same molecule?
Answer: 0.10

Question: What about the “EZF1 mRNA relative expression” value ([1]; VEI 0.17) of the same molecule?
Answer: 0.14

Question: What about the “SMAD3 mRNA relative expression” value ([1]; VEI 0.17) of the same molecule?
Answer: 0.20

Question: And the “STAT1 mRNA relative expression” value ([1]; VEI 0.18)?
Answer: 0.31

Question: What about the “BRAF mRNA relative expression” value ([1]; VEI 0.22) of the same molecule?
Answer: 0.18

Question: And the “BIRC5 mRNA relative expression” value ([1]; VEI 0.23)?
Answer: 0.22

Question: And the “JAK1 mRNA relative expression” value ([1]; VEI 0.23)?
Answer: 1.10

Question: And the “CDK4 mRNA relative expression” value ([1]; VEI 0.24)?
Answer: 0.25

Question: And the “EGFR mRNA relative expression” value ([1]; VEI 0.24)?
Answer: 0.18

Question: What about the “RAF1 mRNA relative expression” value ([1]; VEI 0.25) of the same molecule?
Answer: 0.08

Question: What about the “CCNB1 mRNA relative expression” value ([1]; VEI 0.27) of the same molecule?
Answer: 0.20

Question: What about the “ERBB2 mRNA relative expression” value ([1]; VEI 0.27) of the same molecule?
Answer: 0.07

Question: And the “SRC mRNA relative expression” value ([1]; VEI 0.27)?
Answer: 0.14

Question: What about the “GRB2 mRNA relative expression” value ([1]; VEI 0.31) of the same molecule?
Answer: 0.38

Question: And the “BCL2L1 mRNA relative expression” value ([1]; VEI 0.35)?
Answer: 0.23

Question: What about the “HSP90AA1 mRNA relative expression” value ([1]; VEI 0.35) of the same molecule?
Answer: 0.22

Question: What about the “NFKB1 mRNA relative expression” value ([1]; VEI 0.35) of the same molecule?
Answer: 0.10

Question: And the “RHOA mRNA relative expression” value ([1]; VEI 0.37)?
Answer: 0.30

Question: And the “ELK1 mRNA relative expression” value ([1]; VEI 0.41)?
Answer: 0.11

Question: And the “RELB mRNA relative expression” value ([1]; VEI 0.42)?
Answer: 0.12

Question: And the “CDC42 mRNA relative expression” value ([1]; VEI 0.45)?
Answer: 0.02

Question: And the “CDKN1A mRNA relative expression” value ([1]; VEI 0.49)?
Answer: 0.28

Question: What about the “AKT2 mRNA relative expression” value ([1]; VEI 0.50) of the same molecule?
Answer: 0.41

Question: What about the “HBEGF mRNA relative expression” value ([1]; VEI 0.53) of the same molecule?
Answer: 0.44

Question: What about the “NOTCH1 mRNA relative expression” value ([1]; VEI 1.03) of the same molecule?
Answer: 0.05

Question: And the “STAT6 mRNA relative expression” value ([1]; VEI 1.38)?
Answer: 0.13

Question: What about the “STAT3 mRNA relative expression” value ([1]; VEI 4.45) of the same molecule?
Answer: 0.18

Question: What about the viability at 5 µg/mL [2] of the same molecule?
Answer: 92.1 ± 5.3%

Question: And the viability at 7.5 µg/mL [2]?
Answer: 86.2 ± 6.6%

Question: And the viability at 10 µg/mL [2]?
Answer: 78.2 ± 5.9%

Question: What about the viability at 15 µg/mL [2] of the same molecule?
Answer: 55.3 ± 4.4%
